The values below come from patent US20210221866A1, “PROTEASE-RESISTANT LIPIDATED GLP-1 ANALOGS” (MEDIMMUNE LIMITED, priority 2015, published 2021).

Where two headings read alike, the source gives them in different places. Numbered stars: 1 amine (or outer) side, 2 acyl side, 3 side chain; on linkers, the order of the positions; unused ones are H or OH. Square brackets hold non-standard residues; d marks the D form. Side chains are listed from the residue outwards. Peptide text beside a SMILES is read from it. * marks the point of attachment. C18 diacid = O=C(O)CCCCCCCCCCCCCCCCC(=O)*; γGlu = O=C(O)[C@H](CCC(=O)[*:2])N[*:1]; αMeF = C[C@](N)(Cc1ccccc1)C(=O)O; αMeK = C[C@](N)(CCCCN)C(=O)O; αMeS = C[C@](N)(CO)C(=O)O; AEEA = NCCOCCOCC(=O)O; Aib = CC(C)(N)C(=O)O Some results are limits rather than exact numbers.

Common to all, as to assay type: cell-based
Test [1] deals with T1, human GLP-1 receptor (GLP-1R) (Homo sapiens, UniProt P43220).
T1 construct: expressed in transfected cells; host or cells: HEK293 cells or CHO cells
T1 sequence (P43220 24-463): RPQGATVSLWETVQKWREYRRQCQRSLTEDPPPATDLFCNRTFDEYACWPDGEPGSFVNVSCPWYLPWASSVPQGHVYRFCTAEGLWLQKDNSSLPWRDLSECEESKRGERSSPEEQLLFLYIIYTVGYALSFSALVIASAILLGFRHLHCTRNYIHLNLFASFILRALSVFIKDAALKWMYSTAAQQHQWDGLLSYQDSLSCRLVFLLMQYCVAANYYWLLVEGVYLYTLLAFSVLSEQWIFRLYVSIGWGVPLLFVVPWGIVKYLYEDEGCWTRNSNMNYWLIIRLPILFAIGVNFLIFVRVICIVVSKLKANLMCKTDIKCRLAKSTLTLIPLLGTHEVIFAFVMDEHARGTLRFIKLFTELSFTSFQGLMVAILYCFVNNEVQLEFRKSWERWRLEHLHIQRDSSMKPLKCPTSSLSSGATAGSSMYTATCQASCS
The test is described as follows: cAMP assay, human GLP-1R cells. In short, it runs like this:
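Peptide-stimulated cAMP measured by two-step HTRF after a 30 min room-temperature incubation with receptor-expressing cells (hGLP-1R, hGIPR at 1×10^5 cells/ml; hGCGR at 2×10^5 cells/ml). Duplicate dilutions; EC50 from 4-parameter logistic fit of % Delta F.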
For orientation: Cyclic AMP is a second messenger, typically raised through Gs and lowered through Gi signalling.

In test [2] the target is T2, human glucagon receptor (GCGR) (Homo sapiens, UniProt P47871).
T2 construct: expressed in transfected cells; host or cells: HEK293 cells or CHO cells
T2 sequence (P47871 26-477): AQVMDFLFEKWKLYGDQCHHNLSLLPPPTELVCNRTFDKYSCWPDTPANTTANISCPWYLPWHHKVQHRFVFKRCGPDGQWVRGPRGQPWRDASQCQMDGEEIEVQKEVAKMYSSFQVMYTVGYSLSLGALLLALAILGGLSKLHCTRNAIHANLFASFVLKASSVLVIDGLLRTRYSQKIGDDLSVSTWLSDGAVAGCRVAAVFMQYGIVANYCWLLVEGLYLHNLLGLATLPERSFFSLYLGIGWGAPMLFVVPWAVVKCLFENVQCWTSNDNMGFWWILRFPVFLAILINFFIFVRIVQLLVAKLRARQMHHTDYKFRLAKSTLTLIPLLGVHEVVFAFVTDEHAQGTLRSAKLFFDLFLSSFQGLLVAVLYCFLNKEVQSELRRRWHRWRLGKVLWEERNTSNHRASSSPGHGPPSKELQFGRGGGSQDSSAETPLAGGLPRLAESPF
Description: cAMP assay, human GCGR cells. Particulars: read-out: Primary assay EC50 Gluc-R. The method, then:
(§1) Sample dilutions are made in duplicate.
(§2) A frozen cryo-vial of cells expressing the receptor of interest is thawed rapidly in a water-bath, transferred to pre-warmed assay buffer and spun at 240×g for 5 minutes. Cells are re-suspended in assay buffer at a batch-dependent optimized concentration (e.g. hGCGR cells at 2×10^5 cells/ml, hGLP-1R and hGIPR cells at 1×10^5 cells/ml).
(§3) To this, 5 μL cell suspension is added and the plates incubated at room temperature for 30 minutes.
(§4) cAMP levels are measured using a commercially available cAMP dynamic 2 HTRF kit (Cisbio, Cat #62AM4PEJ), following the two step protocol as per manufacturer's recommendations. In brief; anti-cAMP cryptate (donor fluorophore) and cAMP-d2 (acceptor fluorophore) are made up separately by diluting each 1/20 in conjugate & lysis buffer provided in the kit. 5 μL anti-cAMP cryptate is added to wells of the assay plate, and 5 μL cAMP-d2 is added to wells except non-specific binding (NSB) wells, to which conjugate and lysis buffer are added. […] EC50 values of the synthetic peptides determined in cAMP assays are then determined.
(§5) Data is transformed to % Delta F as described in the manufacturer's guidelines and analyzed by 4-parameter logistic fit to determine EC50 values. […] To compare the balance of activities at the GLP-1R and GCGR between different peptides and across different conditions, these can be correlated, where the EC50's are related to those of comparator peptides.

Test [3] concerns the target T3, human glucose-dependent insulinotropic peptide receptor (GIPR) (Homo sapiens, UniProt P48546).
T3 construct: expressed in transfected cells; host or cells: HEK293 cells or CHO cells
T3 sequence (P48546 22-466): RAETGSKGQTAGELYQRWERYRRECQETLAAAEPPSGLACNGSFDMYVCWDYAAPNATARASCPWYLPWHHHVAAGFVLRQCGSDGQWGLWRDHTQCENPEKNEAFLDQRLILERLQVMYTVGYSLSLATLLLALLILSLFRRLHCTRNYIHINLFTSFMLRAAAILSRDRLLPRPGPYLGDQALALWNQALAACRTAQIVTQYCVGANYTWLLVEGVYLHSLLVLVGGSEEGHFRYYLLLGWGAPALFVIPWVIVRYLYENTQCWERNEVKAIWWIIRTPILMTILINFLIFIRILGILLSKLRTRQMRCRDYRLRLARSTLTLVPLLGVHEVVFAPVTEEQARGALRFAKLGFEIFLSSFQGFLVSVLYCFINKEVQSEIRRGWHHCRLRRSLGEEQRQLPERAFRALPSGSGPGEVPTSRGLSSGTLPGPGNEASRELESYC
Description: cAMP assay, human GIPR cells. Particulars: read-out: Primary assay EC50 GIP-R. The method, then:
as §1, §2, §3, §4, §5

The mark [4] stands for this setting: cAMP activity, first determination (n1), read-out: Primary assay EC50 GLP-1R n1.
Where [5] appears, read: cAMP activity, mean of n1 and n2, read-out: Mean pM GLP-1R.
Where [6] appears, read: cAMP activity, second determination (n2), read-out: Primary assay EC50 GLP-1R n2.
The mark [7] stands for this setting: cAMP activity, second determination (n2).
[8] abbreviates: cAMP activity, first determination (n1).
Setting [9] is: mean of n1 and n2, read-out: Mean pM GLP-1R.
Where [10] appears, read: replicate n1, read-out: Primary assay EC50 GLP-1R n1.
[11] abbreviates: replicate n2, read-out: Primary assay EC50 GLP-1R n2.

Take `CC[C@H](C)[C@H](NC(=O)[C@](C)(Cc1ccccc1)NC(=O)[C@H](CCC(=O)O)NC(=O)[C@](C)(CCCCN)NC(=O)[C@H](C)NC(=O)[C@H](C)NC(=O)[C@H](CCC(=O)O)NC(=O)CNC(=O)[C@H](CCC(=O)O)NC(=O)[C@H](CC(C)C)NC(=O)[C@](C)(Cc1ccccc1)NC(=O)[C@H](CO)NC(=O)[C@](C)(CO)NC(=O)[C@@H](NC(=O)[C@H](CC(=O)O)NC(=O)[C@H](CCCCNC(=O)COCCOCCNC(=O)COCCOCCNC(=O)CC[C@H](NC(=O)CCCCCCCCCCCCCCCCC(=O)O)C(=O)O)NC(=O)[C@@H](NC(=O)[C@](C)(Cc1ccccc1)NC(=O)[C@H](CO)NC(=O)CNC(=O)[C@H](CCC(=O)O)NC(=O)C(C)(C)NC(=O)[C@@H](N)Cc1c[nH]cn1)[C@@H](C)O)C(C)C)C(=O)N[C@@H](C)C(=O)N[C@@](C)(Cc1ccccc1)C(=O)N[C@H](C(=O)N[C@H](C(=O)N[C@@](C)(CCCCN)C(=O)NCC(=O)NCC(N)=O)C(C)C)C(C)C` [compound 121] (H-H[Aib]EGS[αMeF]TK([AEEA-AEEA-γGlu-C18 diacid])DV[αMeS]S[αMeF]LEGEAA[αMeK]E[αMeF]IA[αMeF]VV[αMeK]GG-NH2; N-terminus assumed): the EC50 was no less than 25000 pM in test [1] (setting [4]); no less than 25100 pM in test [1] (setting [5]); no less than 25100 pM in test [1] (setting [6]); no less than 25.1 nM in test [2] (setting [7]); no less than 25 nM in test [3] (setting [8]); no less than 25.1 nM in test [3] (setting [7]).

Turning to `CC[C@H](C)[C@H](NC(=O)[C@](C)(Cc1ccccc1)NC(=O)[C@H](CCC(=O)O)NC(=O)[C@H](CCCCNC(=O)CCCCCNC(=O)CCCCCCCCCCCCCCCCC(=O)O)NC(=O)[C@H](C)NC(=O)[C@H](C)NC(=O)[C@H](CCC(=O)O)NC(=O)CNC(=O)[C@H](CCC(=O)O)NC(=O)[C@H](CC(C)C)NC(=O)[C@](C)(Cc1ccccc1)NC(=O)[C@H](CO)NC(=O)[C@](C)(CO)NC(=O)[C@@H](NC(=O)[C@H](CC(=O)O)NC(=O)[C@H](CO)NC(=O)[C@@H](NC(=O)[C@](C)(Cc1ccccc1)NC(=O)[C@H](CO)NC(=O)CNC(=O)[C@H](CCC(=O)O)NC(=O)C(C)(C)NC(=O)[C@@H](N)Cc1c[nH]cn1)[C@@H](C)O)C(C)C)C(=O)N[C@@H](C)C(=O)N[C@@](C)(Cc1ccccc1)C(=O)N[C@H](C(=O)N[C@H](C(=O)N[C@@](C)(CCCCN)C(=O)NCC(=O)NCC(N)=O)C(C)C)C(C)C` [compound 158], the EC50 is 140 pM in test [1] (setting [4]); 148 pM in test [1] (setting [5]); 160 pM in test [1] (setting [6]); no less than 28 nM in test [2] (setting [7]); no less than 28 nM in test [3] (setting [8]); no less than 28 nM in test [3] (setting [7]).

Take `CCCCCCCCCCCCCCCCCC(=O)NCCOCCOCC(=O)NCCCC[C@H](NC(=O)[C@@H](NC(=O)[C@@H](NC(=O)[C@](C)(Cc1ccccc1)NC(=O)[C@H](C)NC(=O)[C@@H](NC(=O)[C@](C)(Cc1ccccc1)NC(=O)[C@H](CCC(=O)O)NC(=O)[C@](C)(CCCCN)NC(=O)[C@H](C)NC(=O)[C@H](C)NC(=O)[C@H](CCC(=O)O)NC(=O)CNC(=O)[C@H](CCC(=O)O)NC(=O)[C@H](CC(C)C)NC(=O)[C@](C)(Cc1ccccc1)NC(=O)[C@H](CO)NC(=O)[C@](C)(CO)NC(=O)[C@@H](NC(=O)[C@H](CC(=O)O)NC(=O)[C@H](CO)NC(=O)[C@@H](NC(=O)[C@](C)(Cc1ccccc1)NC(=O)[C@H](CO)NC(=O)CNC(=O)[C@H](CCC(=O)O)NC(=O)C(C)(C)NC(=O)[C@@H](N)Cc1c[nH]cn1)[C@@H](C)O)C(C)C)[C@@H](C)CC)C(C)C)C(C)C)C(=O)NCC(=O)NCC(N)=O` [compound 188]: the EC50 in test [1] (setting [4]) is 170 pM; in test [1] (setting [5]) it was 125 pM; in test [1] (setting [6]) it was 77 pM; in test [2] (setting [7]), no less than 28 nM; in test [3] (setting [8]), no less than 28 nM; in test [3] (setting [7]), no less than 28 nM.

In the case of `CC[C@H](C)[C@H](NC(=O)[C@](C)(Cc1ccccc1)NC(=O)[C@H](CCC(=O)O)NC(=O)[C@](C)(CCCCN)NC(=O)[C@H](C)NC(=O)[C@H](C)NC(=O)[C@H](CCC(=O)O)NC(=O)CNC(=O)[C@H](CCC(=O)O)NC(=O)[C@H](CC(C)C)NC(=O)[C@](C)(Cc1ccccc1)NC(=O)[C@H](CO)NC(=O)[C@](C)(CO)NC(=O)[C@@H](NC(=O)[C@H](CC(=O)O)NC(=O)[C@H](CO)NC(=O)[C@@H](NC(=O)[C@](C)(Cc1ccccc1)NC(=O)[C@H](CO)NC(=O)CNC(=O)[C@H](CCC(=O)O)NC(=O)C(C)(C)NC(=O)[C@@H](N)Cc1c[nH]cn1)[C@@H](C)O)C(C)C)C(=O)N[C@@H](C)C(=O)N[C@@](C)(Cc1ccccc1)C(=O)N[C@H](C(=O)N[C@H](C(=O)N[C@@H](CCCCNC(=O)CCCCCNC(=O)CCCCCNC(=O)CCCCCNC(=O)CCCCCCCCCCCCCCCCC(=O)O)C(=O)NCC(=O)NCC(N)=O)C(C)C)C(C)C` [compound 196], the EC50 in test [1] (setting [9]) is 125 pM; in test [1] (setting [10]) it was 190 pM; in test [1] (setting [11]), 63 pM; in test [2] (second replicate (n2)) it was no less than 26 nM; in test [3] (first replicate), no less than 26 nM; in test [3] (second replicate (n2)), no less than 26 nM.

Take `CC[C@H](C)[C@H](NC(=O)[C@](C)(Cc1ccccc1)NC(=O)[C@H](CCC(=O)O)NC(=O)[C@](C)(CCCCN)NC(=O)[C@H](C)NC(=O)[C@H](C)NC(=O)[C@H](CCC(=O)O)NC(=O)CNC(=O)[C@H](CCC(=O)O)NC(=O)[C@H](CC(C)C)NC(=O)[C@](C)(Cc1ccccc1)NC(=O)[C@H](CO)NC(=O)[C@](C)(CO)NC(=O)[C@@H](NC(=O)[C@H](CC(=O)O)NC(=O)[C@H](CO)NC(=O)[C@@H](NC(=O)[C@](C)(Cc1ccccc1)NC(=O)[C@H](CO)NC(=O)CNC(=O)[C@H](CCC(=O)O)NC(=O)C(C)(C)NC(=O)[C@@H](N)Cc1c[nH]cn1)[C@@H](C)O)C(C)C)C(=O)N[C@@H](C)C(=O)N[C@@](C)(Cc1ccccc1)C(=O)N[C@H](C(=O)N[C@H](C(=O)N[C@@H](CCCCNC(=O)COCCOCCNC(=O)CCCCCCCCCCCCCCCCC(=O)O)C(=O)NCC(=O)NCC(N)=O)C(C)C)C(C)C` [compound 197]: the EC50 in test [1] (setting [9]) was 79 pM; in test [1] (setting [10]), 120 pM; in test [1] (setting [11]), 34 pM; in test [2] (second replicate (n2)), no less than 27 nM; in test [3] (first replicate), no less than 27 nM; in test [3] (second replicate (n2)), no less than 27 nM.
